“Also recorded” adds a separate entry of the source.
Legend:
[1] = test system: PMT-6 fibroscaroma tumors; test: Antimetastatic activity against PMT-6 fibrosarcoma tumors in mice (metastases in lung, primary tumor weight); type: in vivo, Black Charles River female mice (C57BL-6j); conditions: for range of primary tumor weights: control 3.1-8.4 g; for average weight of the primary tumors: mice surviving >17 days, control 6.0 g; for Number of Metastases, size 0.01-0.1 mm: control 24; for Number of Metastases, size <0.01 mm: control 102; for Number of Metastases, size >0.01 mm: size range >0.01 mm (so in the source)
Experimental: Black Charles River female mice (C57BL-6j) were injected in the flank muscle on day 1 with a cell suspension obtained from mincing PMT-6 fibroscaroma tumors. This highly metastatic tumor produces a large number of metastases in the lung during development of the primary tumor, so that the efficacy of potential antimetastatic agents can be contrasted with their ability to inhibit primary tumor growth in the same model. The mice were in 4 groups of 6 and were dosed daily with a 0.5% methylcellulose suspension of 5-amino-1-(4-[4-chlorobenzoyl]-3,5-dichlorobenzyl)-1,2,3-triazole-4-carboxamide, the active agent, given by gavage. Fresh drug suspensions were prepared daily. The doses, in 250 μL, were 0, 100, 250, and 500 mg/kg.
The average weights of the primary tumors retrieved from mice who survived longer than 17 days were: Control 6.0 g. (3.1-8.4 g); 100 mg/kg, 2.9 g. (2.1-5.6 g.); 250 mg/kg, 3.0 g (1.3-4.6 g.); and 500 mg/kg, 3.3 g. (2.0-6.5 g.).
The lungs of the mice were sectioned at intervals throughout the entire lung after fixing in 10% formalin, and the sections stained with H&E. The metastases found ranged from micrometases of just a few cells to enormous ones that could be easily seen without a microscope.

[2] = test system: Normal Human Epidermal Keratinocytes (NHEK); test: Inhibition of growth of Normal Human Epidermal Keratinocytes (NHEK); type: cell-based; conditions: for inhibition at 0.5 µg/mL / inhibition at 1 µg/mL / inhibition at 2 µg/mL: Homo sapiens, NHEK
Experimental: The inhibition of PRPP biosynthesis by Compound A and analogs supported the claimed use of the compounds as antiproliferative agents, since this inhibition should prevent all de novo and salvage biosynthesis of purine and pyrimidine nucleotides. […] The data from NHEK's is particularly important since it is the overproliferation of these cells that occurs in psoriasis.
In these experiments Murine keratinocyte transformed cell line PAPp26 was cultured in Dulbecco's modified Eagle's medium with 10% fetal calf serum at 37° C., 5% CO2. Each well of a 96 well plate was seeded with 2000 cells in 200 μl of each drug dilution in duplicate. A plate was stopped and fixed for each time point, stained with Giemsa and then read in a Titertek plate reader at 650 nm, and the absorbances were calibrated with known cell numbers on control plates. NHEK's were obtained from Clonetics Corporation at the secondary stage. Antiproliferative assays were done as for the murine keratinocytes. Media (KGM) without serum was supplied by Clonetics also. Normal Human Fibroblasts and MDBK cells were grown under the same conditions except that MDBK cells were grown at 41° C.

macrophages = test: LTC4 and PGE2 production and lysosomal enzyme release in macrophages; type: cell-based; conditions: 1 μg/ml
LTA4 hydrolase = test: Direct inhibition of LTA4 hydrolase; type: biochemical
P388 leukemia = test: Life prolongation assay, P388 leukemia in nude mice; type: in vivo; conditions: for life prolongation: control survival 15 to 20 days
Experimental: (§1) The topical antiproliferative activities, along with in vitro antiproliferative activities against human keratinocytes and fibroblasts, provide the biological data in support of the claimed utility:
The doses used were 240, 120 and 60 mg/kg delivered i.p. once per day for five days.

[3] = test system: pig skin epidermal basal cells (keratinocytes); test: UV induced hyperproliferation in pig skin in vivo (topical antiproliferative activity); conditions: for effect on uv induced hyperproliferation: daily topical application; for LI (labelling index): uv exposed Gel #1 control 20.8, normal 7.6
Experimental: as §1
In one experiment, a 20 kg pig was sedated and multiple areas of clipped skin were exposed to uv radiation sufficient to provoke a moderate hyperproliferative response within several days of exposure. On days 0, 1, 2 and 3 replicate irradiated sites were treated topically with Compound A in several vehicles or solvents. Topical preparations included a 2% drug in Gel #1, a combination of isopropyl myristate:Crodamol:ethanol, 1:1:2, or DMSO. The hyperproliferative response of the skin to uv was assessed on day 4 by injecting ^3 H-thymidine intradermally, and, 1 hour later, removing the sites by punch biopsy and processing the samples for autoradiography. Such autoradiographs indicate the number of epidermal cells in S phase synthesizing DNA and this is a common tool used by dermatologists to assess inhibition of proliferation in vivo. A single injection of methotrexate, 4 hours prior to ^3 H-thymidine injection was used as a positive control for inhibition of DNA synthesis. A labelling index, L.I., which is the percent of the total number of epidermal basal cells (keratinocytes) counted showing label incorporation. Four days after exposure to uv, the L.I. of pig skin increased from 7.6% to 20.8% (normal human skin ca. 2%, psoriatic lesions ca. 25%, for comparison).

intact pig skin = test: Labelled thymidine incorporation into intact pig skin; conditions: in vivo

NC(=O)c1nnn(Cc2cc(Cl)c(C(=O)c3ccc(Cl)cc3)c(Cl)c2)c1N [Compound A, 5-amino-1-(4-(4-chlorobenzoyl)-3,5-dichlorobenzyl)-1,2,3-triazole-4-carboxamide]
range of primary tumor weights ([1]; 100 mg/kg by gavage daily): 2.1 to 5.6 g | average weight of the primary tumors ([1]; 100 mg/kg by gavage daily): 2.9 g | range of primary tumor weights ([1]; 250 mg/kg by gavage daily): 1.3 to 4.6 g | average weight of the primary tumors ([1]; 250 mg/kg by gavage daily): 3.0 g | range of primary tumor weights ([1]; 500 mg/kg by gavage daily): 2.0 to 6.5 g | average weight of the primary tumors ([1]; 500 mg/kg by gavage daily): 3.3 g | effect on the primary tumor ([1]; 100, 250, 500 mg/kg by gavage): there may be a small effect of the drug on the primary tumor | effect on number of lung metastases ([1]; at even the lowest dose (100 mg/kg/d oral)): a large drop in the number of metastases at even the lowest dose | antimetastatic activity ([1]; mouse, in vivo): has exhibited such antimetastatic activity | Number of Metastases, size 0.01-0.1 mm ([1]; oral 100 mg/kg/d): 0 | Number of Metastases, size <0.01 mm ([1]; oral 100 mg/kg/d): 6 | Number of Metastases, size >0.01 mm ([1]; oral 100 mg/kg/d): 0 | Number of Metastases, size 0.01-0.1 mm ([1]; oral 250 mg/kg/d): 3 | Number of Metastases, size <0.01 mm ([1]; oral 250 mg/kg/d): 9 | Number of Metastases, size >0.01 mm ([1]; oral 250 mg/kg/d): 0 | Number of Metastases, size 0.01-0.1 mm ([1]; oral 500 mg/kg/d): 3 | Number of Metastases, size <0.01 mm ([1]; oral 500 mg/kg/d): 6 | Number of Metastases, size >0.01 mm ([1]; oral 500 mg/kg/d): 1 | NHEK growth, ABS-background (650 nm) ([2]; 0.5 μg/ml, day 4, control .090): .085 | NHEK growth, ABS-background (650 nm) ([2]; 0.5 μg/ml, day 5, control .190): .115 | NHEK growth, ABS-background (650 nm) ([2]; 0.5 μg/ml, day 7, control .390): .190 | NHEK growth, ABS-background (650 nm) ([2]; 1.0 μg/ml, day 4, control .090): .040 | NHEK growth, ABS-background (650 nm) ([2]; 1.0 μg/ml, day 5, control .190): .050 | NHEK growth, ABS-background (650 nm) ([2]; 1.0 μg/ml, day 7, control .390): .120 | NHEK growth, ABS-background (650 nm) ([2]; 2.0 μg/ml, day 4, control .090): .005 | NHEK growth, ABS-background (650 nm) ([2]; 2.0 μg/ml, day 5, control .190): .010 | NHEK growth, ABS-background (650 nm) ([2]; 2.0 μg/ml, day 7, control .390): .050 | inhibition at 0.5 µg/mL ([2]; 96 h, 0.5 μg/ml, day 4): 6% | inhibition at 1 µg/mL ([2]; 96 h, 1.0 μg/ml, day 4): 56% | inhibition at 2 µg/mL ([2]; 96 h, 2.0 μg/ml, day 4): 94% | inhibition at 0.5 µg/mL ([2]; 120 h, 0.5 μg/ml, day 5): 40% | inhibition at 1 µg/mL ([2]; 120 h, 1.0 μg/ml, day 5): 74% | inhibition at 2 µg/mL ([2]; 120 h, 2.0 μg/ml, day 5): 95% | inhibition at 0.5 µg/mL ([2]; 168 h, 0.5 μg/ml, day 7): 51% | inhibition at 1 µg/mL ([2]; 168 h, 1.0 μg/ml, day 7): 70% | inhibition at 2 µg/mL ([2]; 168 h, 2.0 μg/ml, day 7): 87% | inhibition of growth of NHEK ([2]; approximately 1.0 μg/ml): substantial inhibition | inhibition of LTC4 production (macrophages): inhibit | inhibition of PGE2 production (macrophages): inhibit | inhibition of lysosomal enzyme release (macrophages): inhibit | direct inhibition of LTA4 hydrolase (LTA4 hydrolase): no evidence of direct inhibition | life prolongation (P388 leukemia; 60 mg/kg i.p. once per day for five days): 127% | life prolongation (P388 leukemia; 120 mg/kg i.p. once per day for five days): 124% | life prolongation (P388 leukemia; 240 mg/kg i.p. once per day for five days): 134% | in vivo activity against P388 leukemia (P388 leukemia; 240, 120, 60 mg/kg i.p.): significant in vivo activity | minimal effective dose (P388 leukemia; Mus musculus, ip, P388 leukemia, nude mice, read-out: active dose in life prolongation assay): ≥ 60 mg/kg/day | inhibition of uv induced hyperproliferation in pig skin ([3]; 2% formulation in Gel #1, topical): inhibits completely | effect on uv induced hyperproliferation ([3]; Crodamol): less effective | effect on uv induced hyperproliferation ([3]; DMSO): no effect | effect on uv induced hyperproliferation ([3]; Gel #1): dramatically reduced the uv induced hyperproliferation | topical antiproliferative activity ([3]; effects dependent upon vehicle): active topically as an antiproliferative; also recorded: Topical activity against keratinocyte proliferation has been demonstrated | UV induced hyperproliferation, % Inhibition ([3]; topical, Crodamol): 29% | Labelled Cells ([3]; topical, Crodamol, of 963 basal cells counted): 165 | LI (labelling index) ([3]; topical, Crodamol): 17.0% | UV induced hyperproliferation, % Inhibition ([3]; topical, DMSO): 0% | Labelled Cells ([3]; topical, DMSO, of 744 basal cells counted): 150 | LI (labelling index) ([3]; topical, DMSO): 20.1% | UV induced hyperproliferation, % Inhibition ([3]; topical, Gel #1): 100% | inhibition of proliferation compared with injected methotrexate ([3]; topical, Gel #1): comparable to that for injected methotrexate | Labelled Cells ([3]; topical, Gel #1, of 1020 basal cells counted): 57 | LI (labelling index) ([3]; topical, Gel #1): 5.6% | inhibition of labelled thymidine incorporation into intact pig skin (intact pig skin): inhibits | genotoxicity (Toxicity / genotoxicity): lack of toxicity or genotoxicity | toxicity (Toxicity / genotoxicity): lack of toxicity or genotoxicity

From US5045543A, “5-amino or substituted amino 1,2,3-triazoles useful as antimetastatic agents” (Merck & Co., Inc., priority 1989, dated 1991)
